Entries after “also recorded” stand apart in the source; their conditions may differ. Like-named read-outs stand apart in the source and are kept apart here. Blank lines part the entries; values can stand above or below the compound they belong to.
What was measured:
Caenorhabditis elegans = assay: Toxicity assay with C. elegans (viability by mobility and form); format: in vivo, Caenorhabditis elegans (strain N2); conditions: L4-stage worms, 24 h, 25 to 200 μM
Description: (§1) The S. mansoni (BH strain) life cycle was sustained by passage through Biomphalaria glabrata snails and Swiss mice at the Research Center on Neglected Diseases (Guarulhos University, SP, Brazil). Vero cells from the American Type Culture Collection (ATCC) were cultured in Dulbecco’s modified Eagle medium (DMEM) supplemented with 10% heat-inactivated fetal calf serum and 2 mM L-glutamine (Vitrocell, Campinas, SP, Brazil). C. elegans (strain N2) was maintained at 22 °C on nematode growth medium (NGM) agar seeded with Escherichia coli strain OP50, following standard protocols.[26]
Toxicity assays with C. elegans were performed as previously described.[29] For 24 h, 26 L4-stage worms were exposed to samples at concentrations ranging from 25 to 200 μM, including levamisole (LVZ) at 10 μM as the positive control. Viability was assessed based on mobility and form using an inverted microscope, with experiments repeated three times.

[1] = Cytotoxicity on Vero cells (MTT); format: cell-based; conditions: chlorocebus sabaeus; Vero cells, 72 h, MTT, 6.25–200 μM tested; read-out: Vero cell CC50
Description: as §1
(§2) Cytotoxicity was assessed using a previously established method.[20],[28] Cells were plated in 96-well plates and treated with test compounds (6.25–200 μM) and doxorubicin (DXR) at 10 μM as a positive control for 72 h. Cell viability was determined using an MTT solution, and absorbance was measured at 595 nm using a microplate spectrophotometer. The assay was performed in triplicate, and the results are expressed as a percentage of the control.
(§3) Statistical analysis was conducted using GraphPad Prism 8.0. CE50 and CC50 values were determined from sigmoid dose–response curves. Selectivity indices were calculated by dividing CC50 values obtained on Vero cells by CC50 values determined on S. mansoni.[30]

Vero cells = assay: Cytotoxicity on Vero cells (MTT); format: cell-based; conditions: for SI (male worms), selectivity index SI = CC50/EC50: Vero CC50 / S. mansoni male EC50
Description: as §1, §2, §3

Schistosoma mansoni = assay: In vitro antischistosomal assay on adult schistosomes (parasite viability by microscope); format: cell-based, Schistosoma mansoni (BH strain); conditions: for EC50: Schistosoma mansoni
Description: The in vitro antischistosomal potential of compounds 1–5 was evaluated at various concentrations on S. mansoni (male and female) to determine their effective concentrations at 50% (EC50). Praziquantel (PZQ) was employed as a positive control, while vehicle-treated parasites (0.5% DMSO) were a negative control. […] The S. mansoni (BH strain) life cycle was sustained by passage through Biomphalaria glabrata snails and Swiss mice at the Research Center on Neglected Diseases (Guarulhos University, SP, Brazil). Vero cells from the American Type Culture Collection (ATCC) were cultured in Dulbecco’s modified Eagle medium (DMEM) supplemented with 10% heat-inactivated fetal calf serum and 2 mM L-glutamine (Vitrocell, Campinas, SP, Brazil). C. elegans (strain N2) was maintained at 22 °C on nematode growth medium (NGM) agar seeded with Escherichia coli strain OP50, following standard protocols.[26] The in vitro antischistosomal assay followed established procedures.[27] Adult schistosomes from infected mice were exposed to test samples (0.78–50 μM) in RPMI 1640 medium supplemented with 5% heat-inactivated fetal calf serum, penicillin (100 U/mL), and streptomycin (100 μg/mL) in a 24-well culture plate. Test samples, including PZQ, were dissolved in DMSO and tested in triplicate with experiments repeated three times. A BEL Engineering microscope assessed parasite viability at 24, 48, and 72 h. Statistical analysis was conducted using GraphPad Prism 8.0. CE50 and CC50 values were determined from sigmoid dose–response curves. Selectivity indices were calculated by dividing CC50 values obtained on Vero cells by […].[30]

[2] = adult female worms, in vitro, 72 h, 0.78–50 μM tested, read-out: S. mansoni female EC50
[3] = adult male worms, in vitro, 72 h, 0.78–50 μM tested, read-out: S. mansoni male EC50
[4] = adult schistosomes, ex vivo / in vitro, read-out: EC50 against S. mansoni (sex not specified)

SMILES: CCCCC[C@H](O)[C@@H](O)/C=C/C=C/C(=O)CCCCCC(=O)O [Compound 1, (8E,10E,12S,13S)-12,13-dihydroxy-7-oxo-octadeca-8,10-dienoic acid]
EC50 (Schistosoma mansoni; [2]): > 50 µM
EC50 (Schistosoma mansoni; [3]): > 50 µM
EC50 (Schistosoma mansoni; [4]): > 50 µM

SMILES: CCCCCC(=O)/C=C/C=C/[C@H](O)[C@@H](O)CCCCCC(=O)O [Compound 2, (7S,8S,9E,11E)-7,8-dihydroxy-13-oxo-octadeca-9,11-dienoic acid]
EC50 (Schistosoma mansoni; [2]): > 50 µM
EC50 (Schistosoma mansoni; [3]): > 50 µM
EC50 (Schistosoma mansoni; [4]): > 50 µM

SMILES: O=C(O)/C=C/CCCCCCC(=O)O [Compound 4, (2E)-dec-2-ene-1,10-dioic acid]
EC50 (Schistosoma mansoni; [2]): > 50 µM
EC50 (Schistosoma mansoni; [3]): > 50 µM
EC50 (Schistosoma mansoni; [4]): > 50 µM

SMILES: CC1(C)CCC(=O)[C@@]23C(=O)OC4OCC(=CC[C@@H]12)[C@H]43 (some centres unmarked) [Compound 5, marasmeno-1,15-dione]
EC50 (Schistosoma mansoni; [2]): > 50 µM
EC50 (Schistosoma mansoni; [3]): > 50 µM
EC50 (Schistosoma mansoni; [4]): > 50 µM
Antiparasitic activity against S. mansoni (in words) (Schistosoma mansoni; adult schistosomes, in vitro, up to 50 μM): no antiparasitic activity was detected

These reach a lower EC50 (Schistosoma mansoni; [2]). Values come first.

EC50 (Schistosoma mansoni; [2]): 32.6 ± 5.1 µM
EC50 (Schistosoma mansoni; [3]): 8.3 ± 2.4 µM
EC50 (Schistosoma mansoni; [4]): < 10 µM
SMILES: CCCCCCCC/C=C\[C@@H](O)[C@H](O)CCCCCC(=O)O (stereo in doubt) [Compound 3, (7R,8R,9Z)-7,8-dihydroxyoctadec-9-enoic acid]
Toxicity to C. elegans (in words) (Caenorhabditis elegans): did not show toxicity; also recorded: no toxicity
CC50 at 72 h [1]: > 200 µM
SI (female worms), selectivity index SI = CC50/EC50 (Vero cells; Vero CC50 / S. mansoni female EC50): >6.13
SI (male worms), selectivity index SI = CC50/EC50 (Vero cells): >24.09
Toxicity to mammalian cells (in words) (Vero cells; Vero cells, 72 h): no toxicity

EC50 (Schistosoma mansoni; [2]): 1.2 ± 0.1 µM
EC50 (Schistosoma mansoni; [3]): 0.9 ± 0.1 µM
EC50 (Schistosoma mansoni; [4]): < 2 µM
SMILES: O=C(C1CCCCC1)N1CC(=O)N2CCc3ccccc3C2C1 (centres unmarked) [PZQ, Praziquantel, reference compound]
CC50 at 72 h [1]: > 200 µM
SI (male worms), selectivity index SI = CC50/EC50 (Vero cells): >250

From paper PMC11877520, “Anthelmintic Potential of Conjugated Long-Chain Fatty Acids Isolated from the Bioluminescent Mushroom Neonothopanus gardneri” (Journal of Natural Products, 2025)
